The target of one series is T1, OX1 (Homo sapiens, UniProt O43613).
T1 construct: expressed in transfected cells; host or cells: CHO (CHO-OX1, kept under selection antibiotic)
T1 sequence (O43613 1-425): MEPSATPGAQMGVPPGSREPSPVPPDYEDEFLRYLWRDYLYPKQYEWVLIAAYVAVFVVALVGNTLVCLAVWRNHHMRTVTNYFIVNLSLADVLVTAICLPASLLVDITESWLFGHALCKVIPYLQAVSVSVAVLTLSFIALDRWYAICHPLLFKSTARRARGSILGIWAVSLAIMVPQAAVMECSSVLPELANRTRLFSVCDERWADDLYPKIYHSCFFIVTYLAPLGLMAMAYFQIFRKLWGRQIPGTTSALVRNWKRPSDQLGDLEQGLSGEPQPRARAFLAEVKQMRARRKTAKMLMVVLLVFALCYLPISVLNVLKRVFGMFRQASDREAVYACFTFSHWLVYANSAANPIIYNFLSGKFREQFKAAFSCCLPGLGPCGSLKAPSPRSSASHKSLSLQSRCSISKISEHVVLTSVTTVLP
Briefly: Orexin receptor cell-based functional assay, [Ca2+]i by FLIPR, CHO-OX1 cells. The following applies: CHO-OX1 cells, [Ca2+]i by FLIPR, antagonist dose-range 0.1 nM-10 μM, EC90 of OXA; read-out: OX1. In a few lines: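 CHO cells expressing human OX1 or OX2 loaded with calcium dye plus 2.5 mM probenecid at 37° C (calcium4, 30 min, or calcium6, 2 h), then exposed to compounds (0.1 nM-10 μM) for 30 min. Intracellular Ca2+ measured on FLIPR; antagonist format.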

The target in the next series is T2, OX2 (Homo sapiens, UniProt O43614).
T2 construct: expressed in transfected cells; host or cells: CHO (CHO-OX2, kept under selection antibiotic)
T2 sequence (O43614 1-444): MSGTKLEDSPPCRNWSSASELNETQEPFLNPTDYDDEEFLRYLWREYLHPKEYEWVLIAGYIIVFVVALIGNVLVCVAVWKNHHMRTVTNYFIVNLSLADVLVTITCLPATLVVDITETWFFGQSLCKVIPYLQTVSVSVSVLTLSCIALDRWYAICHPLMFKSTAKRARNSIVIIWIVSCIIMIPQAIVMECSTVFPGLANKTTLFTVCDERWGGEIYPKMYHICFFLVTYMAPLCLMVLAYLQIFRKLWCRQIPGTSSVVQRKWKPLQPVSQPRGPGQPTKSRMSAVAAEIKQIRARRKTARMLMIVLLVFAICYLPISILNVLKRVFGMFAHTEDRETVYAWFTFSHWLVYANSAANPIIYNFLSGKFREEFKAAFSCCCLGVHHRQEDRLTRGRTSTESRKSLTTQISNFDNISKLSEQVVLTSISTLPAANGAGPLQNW
Briefly: Orexin receptor cell-based functional assay, [Ca2+]i by FLIPR, CHO-OX2 cells. The following applies: [Ca2+]i by FLIPR, antagonist dose-range 0.1 nM-10 μM, EC90 of OXA, read-out: OX2. On the procedure:
Measurement of [Ca^2+]i using a FLIPR: CHO—OX1 or CHO—OX2 cells are seeded into black-walled clear-base 384-well plates (Costar) at a density of 20,000 cells per well in F12-K medium supplemented with 10% FBS and selection antibiotic (500 ug/ml G418 or 15 ug/ml Blasticidin) and cultured overnight. The cells are incubated with equal volume of calcium4 loading buffer (Molecular Devices, Inc.) containing 2.5 mM probenecid at 37° C. for 30 min, followed by putative OX1 or OX2 receptor antagonists (dose-range 0.1 nM-10 μM) for another 30 min.
The cells are incubated with equal volume of calcium6 loading buffer (Molecular Devices, Inc.) containing 2.5 mM probenecid at 37° C. for 2 h, followed by test compounds (dose-range 0.1 nM-10 μM) for another 30 min.

Another series concerns the target T3, CYP3A4 (Homo sapiens, UniProt P08684).
T3 construct: pre-incubated with human liver microsomes and NADPH; from tissue; host or cells: human liver microsomes
Kind of series: Cytochrome P450 inhibition assay (midazolam hydroxylation). In kind it is in vitro ADME. To be noted: human, human liver microsomes, probe midazolam (hydroxylation to 1′-hydroxymidazolam), 10 μM test compound, midazolam at approximately its Km. An outline of the steps: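 Human liver microsomes; CYP3A4 activity as midazolam 1′-hydroxylation with substrate near Km, with or without 10 μM test compound, read as percent inhibition. For time-dependent inhibition, parallel samples were preincubated 30 min with NADPH before substrate, and percent inhibition compared with non-preincubated samples.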

A value given as a limit tells only on which side of the number the result lay.

T3 sequence (P08684 whole entry): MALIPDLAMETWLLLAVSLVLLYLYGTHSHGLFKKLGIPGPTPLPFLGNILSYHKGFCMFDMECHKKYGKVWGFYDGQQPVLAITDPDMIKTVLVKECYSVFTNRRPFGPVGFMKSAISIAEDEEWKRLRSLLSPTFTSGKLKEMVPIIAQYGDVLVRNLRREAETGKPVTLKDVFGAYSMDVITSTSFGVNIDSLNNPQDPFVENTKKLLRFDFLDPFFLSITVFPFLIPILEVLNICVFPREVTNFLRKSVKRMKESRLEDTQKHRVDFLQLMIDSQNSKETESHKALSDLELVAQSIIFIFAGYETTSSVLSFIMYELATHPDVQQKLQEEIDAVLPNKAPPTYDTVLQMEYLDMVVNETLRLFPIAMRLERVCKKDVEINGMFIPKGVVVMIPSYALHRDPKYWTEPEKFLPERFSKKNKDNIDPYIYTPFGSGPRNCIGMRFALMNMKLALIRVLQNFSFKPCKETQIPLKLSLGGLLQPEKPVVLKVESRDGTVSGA

`C[C@@H]1CCCN(C(=O)c2ccc(F)c(F)c2-n2nccn2)[C@@H]1CNc1ccc(C(F)(F)F)cn1` [Example A324, (3,4-Difluoro-2-(2H-1,2,3-triazol-2-yl)phenyl)((2S,3R)-3-methyl-2-(((5-(trifluoromethyl)pyridin-2-yl)amino)methyl)piperidin-1-yl)methanone]: the IC50 on OX1 was determined as 1 nM; at OX2 it was 490 nM. The same compound yielded an inhibition at 10 µM against CYP3A4 of 87%.

For the compound `C[C@@H]1CCCN(C(=O)c2ccc(F)c(F)c2-n2nccn2)[C@@H]1CNc1ncc(C(F)(F)F)cn1` [Example A325, (3,4-difluoro-2-(2H-1,2,3-triazol-2-yl)phenyl)((2S,3R)-3-methyl-2-(((5-(trifluoromethyl)pyrimidin-2-yl)amino)methyl)piperidin-1-yl)methanone], the IC50 came to 2 nM on OX1 and 4100 nM at OX2. At CYP3A4, this compound gave an inhibition at 10 µM of 80%.

On to `C[C@@H]1CCCN(C(=O)c2c(F)ccc(F)c2-n2nccn2)[C@@H]1CNc1ccc(C(F)(F)F)cn1` [Example A332, (3,6-Difluoro-2-(2H-1,2,3-triazol-2-yl)phenyl)((2S,3R)-3-methyl-2-(((5-(trifluoromethyl)pyridin-2-yl)amino)methyl)piperidin-1-yl)methanone], for which the figures for the IC50 on OX1 and on OX2 were 2 nM and > 5000 nM, respectively. 10 µM produced 62% inhibition at CYP3A4.

In the case of `C[C@@H]1CCCN(C(=O)c2c(F)ccc(F)c2-n2nccn2)[C@@H]1CNc1ncc(C(F)(F)F)cn1` [Example A333, (3,6-difluoro-2-(2H-1,2,3-triazol-2-yl)phenyl)((2S,3R)-3-methyl-2-(((5-(trifluoromethyl)pyrimidin-2-yl)amino)methyl)piperidin-1-yl)methanone], the IC50 at OX1 was 15 nM; at OX2 it was > 5000 nM. The same compound had an inhibition at 10 µM at CYP3A4 of 38%.

In the case of `C[C@@H]1CCCN(C(=O)c2c(F)ccc(F)c2-c2ncccn2)[C@@H]1CNc1ccc(C(F)(F)F)cn1` [Example A334, (3,6-difluoro-2-(pyrimidin-2-yl)phenyl)((2S,3R)-3-methyl-2-(((5-(trifluoromethyl)pyridin-2-yl)amino)methyl)piperidin-1-yl)methanone], the IC50 on OX1 is 2 nM; at OX2 it was 500 nM. Moreover, the inhibition at 10 µM against CYP3A4 was determined as 54%.

With `C[C@@H]1CCCN(C(=O)c2c(F)ccc(F)c2-c2ncccn2)[C@@H]1CNc1ncc(C(F)(F)F)cn1` [Example A335, (3,6-difluoro-2-(pyrimidin-2-yl)phenyl)((2S,3R)-3-methyl-2-(((5-(trifluoromethyl)pyrimidin-2-yl)amino)methyl)piperidin-1-yl)methanone], the IC50 on OX1 is 4 nM; at OX2, > 5000 nM. Moreover, at CYP3A4, testing at 10 µM gave an inhibition of 44%.

`Cc1cc(F)cc(C(=O)N2CCC[C@@H](C)[C@H]2CNc2ccc(C(F)(F)F)cn2)c1-c1ncccn1` [Example A342, (5-Fluoro-3-methyl-2-(pyrimidin-2-yl)phenyl)((2S,3R)-3-methyl-2-(((5-(trifluoromethyl)pyridin-2-yl)amino)methyl)piperidin-1-yl)methanone]: the IC50 worked out at 1 nM at OX1 and 380 nM on OX2. The same compound came in with an inhibition at 10 µM against CYP3A4 of 83%.

Take `Cc1c(F)ccc(C(=O)N2CCC[C@@H](C)[C@H]2CNc2ccc(C(F)(F)F)cn2)c1-n1nccn1` [Example A344, (4-Fluoro-3-methyl-2-(2H-1,2,3-triazol-2-yl)phenyl)((2S,3R)-3-methyl-2-(((5-(trifluoromethyl)pyridin-2-yl)amino)methyl)piperidin-1-yl)methanone]: the IC50 at OX1 was found to be 2 nM; at OX2 it was 2800 nM. The compound also displayed an inhibition at 10 µM against CYP3A4 of 75%.

Turning to `Cc1c(F)ccc(C(=O)N2CCC[C@@H](C)[C@H]2CNc2ncc(C(F)(F)F)cn2)c1-n1nccn1` [Example A345, (4-fluoro-3-methyl-2-(2H-1,2,3-triazol-2-yl)phenyl)((2S,3R)-3-methyl-2-(((5-(trifluoromethyl)pyrimidin-2-yl)amino)methyl)piperidin-1-yl)methanone], the IC50 on OX1 is 1 nM; on OX2 it was > 5000 nM. In addition, the inhibition at 10 µM at CYP3A4 is 60%.

Source of the values: patent publication US9440982B2 (Eolas Therapeutics, Inc., priority 2012, dated 2016).
